The text below walks through data of patent publication US20110118199A1, “USE OF CNS PENETRATING ANTICANCER COMPOUNDS FOR THE TREATMENT OF PROTOZOAL DISEASES” (priority 2006, published 2011).

SMILES strings stand for the structures. Converted amounts (≈) assume the structure as drawn. Like-named read-outs stand apart in the source and are kept apart here. Bounds are passed on as bounds.

Data set [1] has as its system Trypanosoma brucei rhodesiense (STIB 900 clone). Briefly: Drug sensitivity assay (Alamar Blue, 72 h) against bloodstream form trypomastigotes in vitro. It counts as cell-based. The method, then: Bloodstream form trypomastigotes of the strains (a) and (c) are maintained in Minimal Essential Medium (MEM) with Earle's salts supplemented according to Baltz et al. (EMBO J. 4, 1273-1277, 1985) with 25 mM N-2-hydroxyethylpiperazine-N′-2-ethane-sulphonic acid (HEPES), 1 g/l additional glucose, 1% MEM non-essential amino acids (100×), 0.2 mM 2-mercaptoethanol, 2 mM sodium pyruvate, 0.1 mM hypoxanthine and 15% heat-inactivated horse serum.
All cultures and assays are conducted at 37° C. under an atmosphere of 5% CO2 in air.
Stock drug solutions are prepared in 100% dimethylsulphoxide (DMSO) (unless otherwise recommended by the supplier) at 10 mg/ml, and heated or sonicated if necessary to dissolve the sample. The stocks are kept at −20° C. For the assays, the compound is further diluted to the appropriate concentration using complete medium.
Assays are performed in 96-well microtiter plates, each well containing 100 μl of culture medium with 8×10^3 bloodstream forms with or without a serial drug dilution. The highest concentration of the test compounds is 90 μg/ml. Seven 3-fold drug dilutions are used, covering a range from 90 μg/ml to 0.123 μg/ml. Each drug is tested in duplicate. Active compounds are tested twice for confirmation. The final result is the mean of the four individual IC50 values. After 72 hrs of incubation, the plates are inspected under an inverted microscope to assure growth of the controls and sterile conditions.
Ten microliters of Alamar Blue (12.5 mg resazurin dissolved in 100 ml distilled water) are then added to each well and the plates are incubated for another 2 hours. The plates are read with a Spectramax Gemini XS microplate fluorometer (Molecular Devices Cooperation, Sunnyvale, Calif., USA) using an excitation wave length of 536 nm and an emission wave length of 588 nm. IC50 values are determined using the microplate reader software Softmax Pro (Molecular Devices Cooperation, Sunnyvale, Calif., USA).
(In general: Alamar Blue is a resazurin reagent that responds to reducing activity.)

The test system is the same in data set [2]. Kind of data set: Sleeping sickness acute mouse model, T. b. rhodesiense STIB900. The format is in vivo, mice (NMRI). The method, then:
Sleeping Sickness: Acute Model—Trypanosome b. rhodesiense STIB900 Parasite and Animal Strains Trypanosoma brucei rhodesiense STIB900 is used for this model. Female mice (NMRI), weighing 20-25 g, are maintained at 22° C. and 70% relative humidity.
(§1) Standard drugs as positive controls are Melarsoprol (Arsobal®, Specia, France) and Diminazene aceturate (Berenil®, Hoechst, Germany). Stock solutions of all test items were prepared in DMSO.

For data set [3], the system named is Trypanosoma brucei brucei STIB795. Kind of data set: Sleeping sickness acute mouse model, T. b. brucei STIB795. The format is in vivo, mice (NMRI). As to conditions: ip injection, four consecutive days, daily doses of 50 mg/kg; T. b. brucei STIB795 infected mice. The method, then:
Trypanosoma brucei brucei STIB795 is used for this model. Female mice (NMRI), weighing 20-25 g, are maintained at 22° C. and 70% relative humidity.
as §1

In data set [4] the test system is Trypanosoma brucei brucei GVR 35. Kind of data set: Sleeping sickness in vivo chronic CNS mouse model, T. b. brucei GVR 35. As to conditions: 40 mg/kg single i.p. dose on day +21. The arrangement: species or system mice (NMRI). The method, then:
Sleeping Sickness: In Vivo Chronic CNS Model—Trypanosoma b. brucei GVR 35 Parasite and Animal Strains Trypanosoma brucei brucei GVR 35 which leads to a CNS infection by day 21 post-infection (Jennings and Gray, Contrib. Microbiol. Immunol. 7, 147-54, 1983) is used for this model.
Female mice (NMRI), weighing 20-25 g, are maintained at 22° C. and 70% relative humidity.
Infection: The bloodstream forms are from a stock of cryopreserved stabilates containing 10% glycerol. The stabilate is suspended in PSG (phosphate-saline-glucose) 6:4 (Lanham & Godfrey, Exp. Parasitol. 28, 521-534, 1970) to obtain a trypanosome concentration of 8×10^4/ml. Each mouse is intraperitoneally injected with 0.25 ml inoculum (equivalent to 2×10^4 trypanosomes) on day 0.
Experimental groups and control groups each consist of 5 mice.
Evaluation endpoint: On day +28 and then twice a week until day +50 parasitaemia of all animals is checked by tail blood examination and recorded based on a subjective scale ranging from (+)=1 trypanosome/20 fields to +++=>100 trypanosomes/field with a 20× objective. After day +50 the mice are checked only once per week until day +180. For mice dying before day +180 the day of death is recorded. At day +180, surviving and aparasitaemic mice are considered cured and then euthanized. […]

The conditions of data set [5]: patients treated for African trypanomiasis; cited from earlier work.
Setting [6] is: T. b. rhodesiense STIB 900, in vitro, 72 h incubation, Alamar Blue, read-out: IC50.
Setting [7] is: 4 × 20 mg/kg p.o., determined on day 18.

Usually IC50 stands for the concentration at which inhibition is half-maximal.

Consider `CN(C)/N=N/c1[nH]cnc1C(N)=O` [Dacarbazine], for which the IC50 in data set [1] (setting [6]) was determined as 19.7 µg/mL (≈ 108 µM). For the same molecule, the “MSD (mean survival days)” value was 16 days in data set [2] (setting [7]) and >18 days in data set [2] (4 × 50 mg/kg p.o., determined on day 18). Take `C[C@]12CC[C@@H]3c4ccc(OC(=O)N(CCCl)CCCl)cc4CC[C@H]3[C@@H]1CC[C@@H]2O` [Estramustine]: the midpoint of inhibition in data set [1] (72 h), the IC50, lay at 41.5 µg/mL (≈ 94.2 µM).

For `COc1cccc2c1C(=O)c1c(O)c3c(c(O)c1C2=O)C[C@@](O)(C(=O)CO)C[C@@H]3O[C@H]1C[C@H](N)[C@H](O)[C@H](C)O1` [Doxorubicin], in data set [1] (setting [6]), the half-maximal inhibitory concentration (IC50) came out at 0.015 µg/mL (≈ 0.0276 µM). Same read-out and setting: the value for `O=NN(CCCl)C(=O)NCCCl` [Carmustine] was 2.18 µg/mL (≈ 10.2 µM). Take `Cn1nnc2c(C(N)=O)ncn2c1=O` [Temozolomide]: the half-inhibitory concentration (IC50) in data set [1] (setting [6]) was found to be 27.7 µg/mL (≈ 143 µM). Moreover, the cure rate in data set [3] was 100%. The “MSD (mean survival days)” value in data set [2] (setting [7]) is listed as >18 days; in data set [2] (4 × 50 mg/kg i.p.), >51.5 days; in data set [2] (4 × 50 mg/kg p.o.), >60 days. Moreover, the Cured/Infected is reported as 3/4 in data set [2] (4 × 50 mg/kg i.p.) and 4/4 in data set [2] (4 × 50 mg/kg p.o.). As to `CC(=O)O[C@@]12CO[C@@H]1C[C@H](O)[C@@]1(C)C(=O)[C@H](O)C3=C(C)[C@@H](OC(=O)[C@H](O)[C@@H](NC(=O)OC(C)(C)C)c4ccccc4)C[C@@](O)([C@@H](OC(=O)c4ccccc4)[C@H]21)C3(C)C` [Docetaxel], the IC50 in data set [1] (setting [6]) stood at 0.006 µg/mL (≈ 0.00743 µM).

As for `N=C(N)c1ccc(/N=N/Nc2ccc(C(=N)N)cc2)cc1` [Diminazene diaceturate], in data set [4], the “course of parasitaemia and death (negative control)” value was “all mice clear parasitaemia but relapse before day +40 and die between day +50 and day +60”. For the molecule `Nc1nc(N)nc(Nc2ccc([As]3SCC(CO)S3)cc2)n1` (stereo not drawn) [Melarsoprol], the “often fatal reactive encephalopathy, share of treated patients” value in data set [5] is on record as “up to 10%”. Consider `CC(=O)O[C@H]1C(=O)[C@@]2(C)[C@H]([C@H](OC(=O)c3ccccc3)[C@]3(O)C[C@H](OC(=O)[C@H](O)[C@@H](NC(=O)c4ccccc4)c4ccccc4)C(C)=C1C3(C)C)[C@]1(OC(C)=O)CO[C@@H]1C[C@@H]2O` [Paclitaxel], for which the IC50 in data set [1] (setting [6]) amounted to 0.01 µg/mL (≈ 0.0117 µM). `CC[C@]1(O)C[C@@H]2CN(CCc3c([nH]c4ccccc34)[C@@](C(=O)OC)(c3cc4c(cc3OC)N(C)[C@H]3[C@@](O)(C(=O)OC)[C@H](OC(C)=O)[C@]5(CC)C=CCN6CC[C@]43[C@@H]65)C2)C1` [Vinblastine]: in data set [1] (setting [6]), the IC50 was 0.13 µg/mL (≈ 0.16 µM).
